Test results published in patent US11679123B2, “N-acylated hyaluronic acid for hyperuricemia and gouty arthritis” (Queen's University at Kingston, priority 2018, dated 2023).

Key:
[1] = test system: rats with MSU-induced gouty arthritis; assay: Dose screening on MSU crystals-induced acute gout in rats: ankle swelling ratio; format: in vivo, Wistar rats; conditions: P<0.05
Method: 48 male Wistar rats (8 weeks: 180-200 g), purchased from Yisi Experimental Animal Technology Company Ltd, Jilin, China (SCXK (Ji)-2016-0003), were housed in plastic cages and maintained on a 12-h light/12-h dark cycle (lights on 7:00-19:00 h) under standard laboratory conditions of 55% relative humidity and 23° C.±1° C. They were given standard chow and tap water ad libitum. All experimental procedures were approved by the Animal Ethics Committee of Jilin University (Reference NO. 201605).
An experimental model of MSU-induced gouty arthritis was used in order to evaluate the anti-inflammatory activities of BHA similar as previous studies with some modifications. Rats were randomly divided into eight groups (n=6), including control group (NC), model group (MC), 0.3 mg/kg colchicine group (COL), 5 μg BHA group (5BHA), 10 μg BHA group (10BHA), 25 μg BHA group (25BHA), 50 μg BHA group (50BHA), 100 μg BHA group (100BHA). MSU crystals were suspended in 0.9% sterile saline (30 mg/mL) prior to use. Rats in the colchicine group were orally administered colchicine (0.3 mg/kg) for 8 days. At day 6, MSU solution (100 μL of 30 mg/mL) was intra-articular injected at the right ankles of all rats except the NC group m which were injected with saline solution. 5BHA, 10BHA, 25BHA, 50BHA and 100BHA groups received intra-articular injections of 5, 10, 25, 50, or 100 μg BHA along with MSU solution (100 μL of 30 mg/mL MSU solution contains 5, 10, 25, 50 or 100 μg BHA) were administered according to the stated BHA doses.
The right ankle circumference of all rats at 0, 4, 12, 24 and 48 h after MSU injection was measured. The swelling ratio (%) was used for evaluating the gouty arthritis and calculated according to the change of the circumference following the formula: Swelling ratio (%)=(Ct−C0)/C0. Wherein, Ct represented the circumference at t hour and C0 represented the circumference at 0 hour.

[2] = test system: inflammatory cell infiltration in the synovium; assay: Histopathological assessment of ankle joint synovium (H&E) in MSU crystal-injected rats; format: in vivo, Wistar rats
Method: In one study, a histopathological assessment was conducted of synovium in ankle joints of rats after H&E staining. The right ankles of […] were excised and fixed in 4% paraformaldehyde, and subsequently decalcified using 10% ethylenediaminetetraacetic acid. They were then dehydrated via processing in alcohol/xylene mixtures with different proportions and concentrations. The histological sections were stained with hematoxylin and eosin. The histopathological changes of the joint synovium were assessed for the degree of inflammatory cell infiltrate, by an experienced histopathologist. Microscopy at magnifications of 40×, 100×, 200× and 400× were investigated for typical areas for each of the five groups.
The right ankles of rats were collected and fixed in 4% paraformaldehyde, and subsequently decalcified using 10% ethylenediaminetetraacetic acid. They were then dehydrated by processing in alcohol/xylene mixtures with different proportions and concentrations. The histological sections were later stained with hematoxylin and eosin for observation under an optical microscope (200×). The histopathological changes were analyzed with regard to deformaties of the joint synovium and infiltration by inflammatory cells into the ankle.

[3] = test system: factors related to oxidative stress; assay: Factors related to oxidative stress in serum and liver of hyperuricemia mice (ELISA); format: in vivo, Balb/C mice; conditions: for Liver CAT / Liver GSH-PX / Liver MDA / Liver ROS / Liver SOD / Serum CAT / Serum GSH-PX / Serum MDA / Serum ROS / Serum SOD: hyperuricemia mice, mean ± S.D., n=10
Method: (§1) Due to the presence of uricase in mice, a hyperuricemic mouse model was established by using uricase inhibitor and large amounts of purine. Mice were randomly divided into five groups (n=10), including the control group (NC), model group (MC), 20 mg/kg of AL (Shimao Tianjie Pharmaceutical Co. Ltd, Jiangsu, China) group, 10 μg BHA group (10BHA) and 50 μg BHA group (50BHA). Oral administration of AL and intraperitoneal injection of BHA were administered according to the required dose, and all mice were gavage fed 20 g/kg yeast extract powder 12 h prior to the administration of AL and BHA except for NC mice for 8 days. From the 6th to 8th day, 1-h prior to AL and BHA administration, 300 mg/kg of OXO (Sigma, USA) was intraperitoneally injected to all of the mice except those in the control group. At 1 h after the final drug administration, blood was sampled from caudal veins of the mice, serum was separated and their livers were quickly collected (FIG. 3A, E). All samples were stored at −80° C. until assay measurements were performed.
(§2) The levels of reactive oxygen species (ROS, 43355), malondialdehyde (MDA, 43124) glutathione peroxidase (GSH-Px, 43390), superoxide dismutase (SOD, 43125), catalase (CAT, 43356), creatinine (Cr, 43353) and blood urea nitrogen (BUN, 43352) in the serum and livers of mice were determined using ELISA Kits (Yuanye Bio-Technology Co. Ltd, Shanghai, China) according to the manufacturer's instructions.

[4] = test system: creatinine (Cr) and blood urea nitrogen (BUN); assay: Cr and urea nitrogen in serum and liver of hyperuricemic mice (renal function); format: in vivo, Balb/C mice; conditions: for lowering of Cr in the serum / lowering of urea nitrogen in the liver: BHA, P<0.05
Method: as §1, §2

[5] = test system: stimulated human cultured macrophages; conditions: THP-1, BHA of reduced molecular weight; cited from earlier work
[6] = 10 μg BHA intraperitoneal (10BHA)
[7] = 50 μg BHA intraperitoneal (50BHA)

N-butyrylated HA [BHA]
swelling of the ankle compared to MSU treated group ([1]; n=6, BHA 5-100 μg intra-articular, at 4 h and 12 h): significantly suppressed swelling | swelling of the ankle compared to MSU treated group ([1]; n=6, BHA at doses of 10 μg, 50 μg and 100 μg, at 48 h): significant suppressing of swelling effect | pathological changes (inflammatory cell infiltration) in synovium ([2]; 10 μg of BHA, MSU crystal-injected rats, H&E): partially prevented the pathological changes | attenuation of inflammatory cell infiltration in synovium ([2]; higher dose BHA (50BHA, 50 μg)): not as effective as the 10BHA dose | decrease of ROS levels in the liver ([3]; 10 μg BHA, P<0.01): 8.04% | decrease of ROS levels in the serum ([3]; 10 μg BHA, P<0.01): 14.87% | improvement of liver SOD ([3]; 10 μg BHA, P<0.05): 12.77% | decrease of ROS levels in the liver ([3]; 50 μg BHA, P<0.05): 9.59% | decrease of ROS levels in the serum ([3]; 50 μg BHA, P<0.05): 14.63% | improvement of liver SOD ([3]; 50 μg BHA, P<0.05): 13.69% | Liver CAT [3, 6]: 13.1 ± 1.4 U/mg | Liver GSH-PX [3, 6]: 78.8 ± 8^ U/mg | Liver MDA [3, 6]: 3.4 ± 0.2 nmol/mg | Liver ROS [3, 6]: 70.8 ± 3.7 U/mg | Liver SOD [3, 6]: 56.8 ± 5.8 U/mg | Serum CAT [3, 6]: 43.3 ± 4.6 U/mL | Serum GSH-PX [3, 6]: 246.8 ± 10.2 U/mL | Serum MDA [3, 6]: 10.4 ± 0.5 nmol/mL | Serum ROS [3, 6]: 226.6 ± 17.9 U/mL | Serum SOD [3, 6]: 166.6 ± 11.8 U/mL | Liver CAT [3, 7]: 14.1 ± 1.5 U/mg | Liver GSH-PX [3, 7]: 77.9 ± 7.3 U/mg | Liver MDA [3, 7]: 3.5 ± 0.2 nmol/mg | Liver ROS [3, 7]: 69.6 ± 7.1 U/mg | Liver SOD [3, 7]: 57.2 ± 4.4 U/mg | Serum CAT [3, 7]: 41.5 ± 6^ U/mL | Serum GSH-PX [3, 7]: 231.4 ± 13.3 U/mL | Serum MDA [3, 7]: 10.5 ± 0.3 nmol/mL | Serum ROS [3, 7]: 227.2 ± 17.9 U/mL | Serum SOD [3, 7]: 161.2 ± 8 U/mL | lowering of Cr in the liver ([4]; 10 μg BHA, P<0.01): 8.14% | lowering of Cr in the serum ([4]; second value listed (10 μg)): 8.21% | lowering of urea nitrogen in the liver ([4]; second value listed (10 μg)): 11.65% | lowering of Cr in the serum ([4]; third value listed (50 μg)): 12.02% | lowering of urea nitrogen in the liver ([4]; third value listed (50 μg)): 12.81% | production of pro-inflammatory cytokines (IL-1, IL-6, IL-8, TNF-α) [5]: decreased production of pro-inflammatory cytokines significantly
